# Experimental data from patent publication US10760052B2, “Method of inhibiting tau phosphorylation” (priority 2012, dated 2020).
# Like-named read-outs stand apart in the source and are kept apart here.
# Target: T1, mu opiate receptor (MOR) (Rattus norvegicus, UniProt P33535)
# T1 construct: from tissue; host or cells: striatum (membrane preparation)
# Assay type: biochemical
# Experimental: To assess the mu opiate receptor (MOR) agonist activity of positive compounds from the FLNA screening, compounds were tested in a [^35S]GTPγS binding assay using striatal membranes. […] This assay measures a functional consequence of receptor occupancy at one of the earliest receptor-mediated events. The assay permits for traditional pharmacological parameters of potency, efficacy and antagonist affinity, with the advantage that agonist measures are not subjected to amplification or other modulation that may occur when analyzing parameters further downstream of the receptor.
# Thus, striatal tissue was homogenized in 10 volumes of ice cold 25 mM HEPES buffer, pH 7.4, which contained 1 mM EGTA, 100 mM sucrose, 50 μg/ml leupeptin, 0.04 mM PMSF, 2 μg/ml soybean trypsin inhibitor and 0.2% 2-mercaptoethanol. The homogenates were centrifuged at 800×g for 5 minutes and the supernatants were centrifuged at 49,000×g for 20 minutes.
# The resultant striatal membrane preparation (200 μg) was admixed and maintained (incubated) at 30° C. for 5 minutes in reaction buffer as above that additionally contained 1 mM MgCl2 and 0.5 nM [^35S]GTPγS (0.1 μCi/assay, PerkinElmer Life and Analytical Sciences) in a total volume of 250 μl and continued for 5 minutes in the absence or presence of 0.1-10 μM of an assayed compound of interest. The reaction was terminated by dilution with 750 μl of ice-cold reaction buffer that contained 20 mM MgCl2 and 1 mM EGTA and immediate centrifugation at 16,000×g for 5 minutes.
# Normal rabbit serum (1 μl) was added to 1 ml of lysate and incubated at 25° C. for 30 minutes. Nonspecific immune complexes were removed by incubation with 25 μl of protein A/G-conjugated agarose beads at 25° C. for 30 minutes followed by centrifugation at 5,000×g at 4° C. for 5 minutes. The supernatant was divided and separately incubated at 25° C. for 30 minutes with antibodies raised against Gαo proteins (1:1,000 dilutions).
# The immunocomplexes so formed were collected by incubation at 25° C. for 30 minutes with 40 μl of agarose-conjugated protein A/G beads and centrifugation at 5,000×g at 4° C. for 5 minutes. The pellet was washed and suspended in buffer containing 50 mM Tris-HCl, pH 8.0, and 1% NP-40. The radioactivity in the suspension was determined by liquid scintillation spectrometry.
# [1] = [35S]GTPγS binding to Gαo in striatal membranes, compound 0.1 μM
# [2] = [35S]GTPγS binding to Gαo in striatal membranes, compound 1 μM
# [3] = [35S]GTPγS binding to Gαo in striatal membranes, compound 1 μM plus 1 μM β-funaltrexamine (MOR antagonist)
# [4] = 0.1 μM compound, striatal membranes, Series C-2
# [5] = 1 μM compound + 1 μM β-FNA (selective MOR antagonist), Series C-2
# [6] = 1 μM compound, striatal membranes, Series C-2
# T1 sequence (P33535 whole entry): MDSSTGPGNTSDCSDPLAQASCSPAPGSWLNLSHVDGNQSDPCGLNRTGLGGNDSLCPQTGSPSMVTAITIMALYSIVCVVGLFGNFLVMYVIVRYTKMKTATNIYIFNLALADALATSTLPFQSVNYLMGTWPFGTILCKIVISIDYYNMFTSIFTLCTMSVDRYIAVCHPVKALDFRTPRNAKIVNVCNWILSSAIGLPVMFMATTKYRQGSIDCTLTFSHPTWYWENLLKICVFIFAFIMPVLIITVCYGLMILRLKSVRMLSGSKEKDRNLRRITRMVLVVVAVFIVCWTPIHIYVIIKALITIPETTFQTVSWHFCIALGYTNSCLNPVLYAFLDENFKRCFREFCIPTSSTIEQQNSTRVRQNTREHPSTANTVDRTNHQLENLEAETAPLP
Compound,% DAMGO (0.1 μM),% DAMGO (1 μM),% DAMGO + BFNA,Concentration of FLNA-Binding Compound as Agonist 0.1 μM [1],Concentration of FLNA-Binding Compound as Agonist 1 μM [2],Concentration of FLNA-Binding Compound as Agonist 1 μM + BFNA [3],"[35S]GTPγS binding, FLNA-Binding Compound as Agonist at 0.1 μM [4]","[35S]GTPγS binding, FLNA-Binding Compound as Agonist at 1 μM + BFNA [5]","[35S]GTPγS binding, FLNA-Binding Compound as Agonist at 1 μM [6]",Concentration of FLNA-Binding Compound as Agonist 0.1 μM,Concentration of FLNA-Binding Compound as Agonist 1 μM,Concentration of FLNA-Binding Compound as Agonist 1 μM + BFNA,"[35S]GTPγS binding, FLNA-Binding Compound as Agonist at 0.1 μM","[35S]GTPγS binding, FLNA-Binding Compound as Agonist at 1 μM","[35S]GTPγS binding, FLNA-Binding Compound as Agonist at 1 μM + BFNA"
CC(=O)c1ccc(S(=O)(=O)N2CCC3(CC2)OCC(CCCCN(C)C)N3S(=O)(=O)c2ccc(C(C)=O)cc2)cc1 (stereo not drawn) [Compound C0080M],112.1%,92.4%,351.8%,187.9%,205.4%,167.1%,–,–,–,–,–,–,–,–,–
COc1ccc(C(=O)CC2c3c(cc4c(c3OC)OCO4)CC[N+]2(C)C)cc1C (stereo not drawn) [Compound B0021],75.9%,104.7%,123.6%,126.9%,256.4%,42.9%,–,–,–,–,–,–,–,–,–
COc1c2c(cc3c1C(CC(=O)Cc1ccccc1C)[N+](C)(C)CC3)OCO2 (stereo not drawn) [Compound B0031],109.6%,99.6%,65.6%,210.8%,272.0%,28.8%,–,–,–,–,–,–,–,–,–
CC1CCC(C(C)C)C(OCC(O)CN2CC(C)OC(C)C2)C1 (stereo not drawn) [Compound A0032-1],95.5%,117.6%,303.8%,187.4%,324.5%,224.5%,–,–,–,–,–,–,–,–,–
COc1c2c(cc3c1C(CC(=O)Cc1ccc(Br)cc1)[N+](C)(C)CC3)OCO2 (stereo not drawn) [Compound B0011],95.7%,78.7%,120.0%,158.6%,212.6%,78.0%,–,–,–,–,–,–,–,–,–
COc1ccc(NC(=O)N2CCC3(CC2)NCCO3)cc1 [Compound C0151M-2],201.6%,122.0%,233.1%,–,–,–,346.8%,212.8%,397.6%,–,–,–,–,–,–
CC(=O)c1ccc(S(=O)(=O)N2CCOC23CCN(CC(=O)O)CC3)cc1 [Compound C0100M],103.6%,110.6%,411.8%,–,–,–,173.6%,195.6%,245.9%,–,–,–,–,–,–
CC(=O)c1ccc(S(=O)(=O)N2CCC3(CC2)NC(=O)CN3S(=O)(=O)c2ccc(C(C)=O)cc2)cc1 [Compound C0064],124.2%,159.1%,110.4%,213.8%,349.6%,38.1%,–,–,–,–,–,–,–,–,–
"C[C@@H](NC(=O)[C@@H](N)Cc1ccc(O)cc1)C(=O)NCC(=O)N(C)[C@@H](Cc1ccccc1)C(=O)NCCO [DAMGO, reference compound]",–,–,–,–,–,–,–,–,–,168.5%,266.1%,53.2%,168.5%,266.1%,53.2%
CC1CN(CC(O)COc2ccccc2Br)CC(C)O1 (stereo not drawn) [Compound A0043],93.4%,81.1%,120.6%,183.3%,223.8%,89.1%,–,–,–,–,–,–,–,–,–
COc1ccc(N2CCN(CC(O)COC3CC(C)CCC3C(C)C)CC2)c(OC)c1 (stereo not drawn) [Compound A0012],99.9%,80.7%,461.9%,149.3%,185.7%,122.4%,–,–,–,–,–,–,–,–,–
CC(=O)c1ccc(S(=O)(=O)N2CC(CN(C)C)OC23CCN(CC2CC2)CC3)cc1 (stereo not drawn) [Compound C0128M],104.5%,115.2%,131.8%,–,–,–,197.8%,63.9%,286.0%,–,–,–,–,–,–
O=C1CN(Cc2ccccc2)C2(CCNCC2)N1 [Compound C0115M],105.7%,102.0%,249.3%,–,–,–,–,–,–,–,–,–,177.2%,226.8%,118.4%
O=S(=O)(c1ccccc1)N1CCC2(CC1)OCCN2S(=O)(=O)c1ccccc1 [Compound C0016],100.4%,83.3%,150.9%,172.7%,230.5%,96.7%,–,–,–,–,–,–,–,–,–
O=S(=O)(c1ccc(OC(F)(F)F)cc1)N1CCC2(CC1)OCCN2S(=O)(=O)c1ccc(OC(F)(F)F)cc1 [Compound C0006],70.6%,73.8%,7.2%,121.5%,204.0%,4.6%,–,–,–,–,–,–,–,–,–
CCCCc1ccc(S(=O)(=O)N2CCC3(CC2)OCCN3S(=O)(=O)c2ccc(CCCC)cc2)cc1 [Compound C0030],96.0%,98.0%,291.4%,150.3%,226.8%,95.0%,–,–,–,–,–,–,–,–,–
CC1CCC(C(C)C)C(OCC(O)CN2CCc3ccccc3C2)C1 (stereo not drawn) [Compound A0040],23.5%,54.0%,22.6%,46.1%,149.0%,16.7%,–,–,–,–,–,–,–,–,–
CC1CCC(C(C)C)C(OCC(O)CN2CCCCC2=O)C1 (stereo not drawn) [Compound A0036],73.4%,60.7%,85.5%,144.1%,167.5%,63.2%,–,–,–,–,–,–,–,–,–
Cc1ccc(S(=O)(=O)N2CCC3(CC2)OCCN3S(=O)(=O)c2ccc(C)cc2)cc1 [Compound C0001],75.2%,66.6%,52.9%,129.3%,184.3%,33.9%,–,–,–,–,–,–,–,–,–
COc1ccccc1CC(=O)CC1c2c(cc3c(c2OC)OCO3)CC[N+]1(C)C (stereo not drawn) [Compound 5009],66.9%,83.2%,181.5%,128.5%,270.4%,87.5%,–,–,–,–,–,–,–,–,–
